Values after ≈ are worked out from the molar mass of the structure shown. Read-outs that look alike come from different tables or passages of the source. *1 amine or outer side, *2 acyl side, *3 side chain or, on linkers, in order; H or OH if unused. Where a SMILES comes first, the peptide text is derived from it. Bridges are numbered along the chain shown (N, C = ends). [ ]: non-standard residue; d: D form. The star is where a group is joined. ξ: configuration not given here. Phe(3,5-F2) = N[C@@H](Cc1cc(F)cc(F)c1)C(=O)O; NH(4-OCF3-phenyl) = FC(F)(F)Oc1ccc(N*)cc1; ξPro(4S-Me) = C[C@@H]1CNC(C(=O)O)C1; ξPro(4R-Me) = C[C@H]1CNC(C(=O)O)C1; NH(4-Me-phenyl) = Cc1ccc(N*)cc1; aThr = C[C@H](O)[C@H](N)C(=O)O; X5 = O=C(C1COCCN1[*:1])[*:2]; NMeA = CN[C@@H](C)C(=O)O; ξPip = O=C(O)C1CCCCN1; CO = O=C([*:1])[*:2]; ξP = O=C(O)C1CCCN1
Experiments:
Assay type in all cases: cell-based
[1] = tested on: Bacillus subtilis, ATCC 23857; assay: Minimal inhibitory concentration assay (microbroth dilution)
In short: (§1)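 CLSI broth microdilution: two-fold compound dilutions from 200 μM final, ~10^5 cfu/mL inoculum, aerobic overnight incubation at 37 °C. MIC read visually as lowest concentration preventing growth; S. aureus USA 300 compared with its ClpP-inactivated counterpart to check ClpP dependence.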

[2] = tested on: Staphylococcus aureus, NRS70; assay: as above
In short: as §1

[3] = tested on: Staphylococcus aureus, ATCC 29213; assay: as above; settings: ATCC29213, read-out: Minimal Inhibitory Concentrations S. aureus ATCC 29213
In short: as §1

[4] = tested on: Streptococcus pneumoniae, R6; assay: Minimal inhibitory concentration assay; settings: read-out: Minimal Inhibitory Concentrations S. pneumoniae R6
Experimental: It is understood, that in various aspects, the MIC is determined by a microbroth dilution method. […] In a still further aspect, the MIC is determined by a microbroth dilution method using Staphylococcus aureus, NRS70. […] In an even further aspect, the MIC is determined by a microbroth dilution method using Streptococcus pneumoniae, DAW27. […] In an even further aspect, the MIC is determined using Staphylococcus aureus, USA 300. In a still further aspect, the MIC is determined using Streptococcus pneumoniae, R6. In a further aspect, the MIC is determined using Staphylococcus aureus, USA 300 and compared to the MIC determined using Staphylococcus aureus, USA 300 wherein ClpP is inactivated, thus allowing confirmation that killing is via a ClpP-dependent pathway.
Two fold serial dilutions of test compound in 100 μL of the appropriate broth media were first prepared in 96-well round bottom microtiter plates (Nalgene Nunc International, Rochester, N.Y., USA). […] The plates were then incubated aerobically at 37° C. All strains were incubated overnight. After incubations, in all cases the MIC was recorded as the lowest concentration of drug that prevented bacterial growth. The bacterial strains for which MIC was determined as described in Table 4.

[5] = tested on: Staphylococcus aureus, USA 300; assay: Minimal inhibitory concentration assay; settings: USA300, read-out: Minimal Inhibitory Concentrations S. aureus USA 300
In short: as §1

[6] = tested on: Staphylococcus aureus, USA 300 wherein ClpP is inactivated; assay: Minimal inhibitory concentration assay
In short: as §1

[7] = tested on: Vero (kidney epithelial cells; ATCC CCL-81); assay: Cytotoxicity assay (CellTiter-Glo cell viability, 72 hours)
In short: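 Vero cells, 5000/well, grown overnight at 37° C, 5% CO2 in DMEM with 10% FBS, then exposed to serial compound dilutions or DMSO for 72 hours. Viability read by CellTiter-Glo luminescence. IC50 from duplicate wells, reported as range over two independent experiments.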

[8] = tested on: Streptococcus pyogenes, ATCC 700294; assay: Minimal inhibitory concentration assay (microbroth dilution)
In short: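 CLSI broth microdilution: two-fold serial compound dilutions in appropriate broth, inoculated and incubated aerobically overnight at 37° C. MIC read visually as lowest concentration preventing bacterial growth.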

[9] = tested on: Enterococcus faecalis, ATCC 33186; assay: as above; settings: Enterococcus faecalis, ATCC33186, read-out: Minimal Inhibitory Concentrations E. faecalis ATCC 33186
In short: as §1

[10] = Bacillus subtilis, ATCC23857, read-out: Minimal Inhibitory Concentrations B. subtilis ATCC 23857
[11] = Staphylococcus aureus, NRS70, read-out: Minimal Inhibitory Concentrations S. aureus NRS70
[12] = Vero cells, 72 hours, growth inhibition, read-out: Cytotoxicity IC50
[13] = Streptococcus pyogenes, ATCC700294, read-out: Minimal Inhibitory Concentrations S. pyogenes ATCC 700294

Structure (SMILES) | MIC [1, 10] [µM] | MIC [2, 11] [µM] | MIC [3] [µM] | MIC [4] [µM] | MIC [5] [µM] | Minimal Inhibitory Concentrations S. aureus USA 300 ΔClpP [6] [µM] | IC50 [7, 12] [µM] | MIC [8, 13] [µM] | MIC [9] [µM] | MIC ([1]; Bacillus subtilis, ATCC23857; read-out: Minimal Inhibitory Concentrations B. subtilis ATCC 23857) [µM] | MIC ([2]; Staphylococcus aureus, NRS70; read-out: Minimal Inhibitory Concentrations S. aureus NRS70) [µM] | IC50 ([7]; African green monkey, 72 h) [µM] | MIC ([8]; Streptococcus pyogenes, ATCC700294; read-out: Minimal Inhibitory Concentrations S. pyogenes ATCC 700294) [µM]
Cc1ccc(NC(=O)N[C@@H](Cc2cc(F)cc(F)c2)C(=O)N[C@@H]2C(=O)N3CCCC3C(=O)N(C)[C@@H](C)C(=O)N[C@@H](C)C(=O)N3CCCC3C(=O)O[C@H]2C)cc1 (stereo partly drawn) [Compound 25, (2S)-3-(3,5-difluorophenyl)-N-((6S,9S,11aS,17S,18S)-6,9,10,18-tetramethyl-5,8,11,16,20-pentaoxohexadecahydro-1H,5H,16H-dipyrrolo[2,1-c:2′,1′-l][1]oxa[4,7,10,13]tetraazacyclohexadecin-17-yl)-2-(3-(p-tolyl)ureido)propanamide] ({NH(4-Me-phenyl)-CO}-[Phe(3,5-F2)][aThr][ξP][NMeA]A[ξP]; ester 2-C) | 0.02 (≈ 0.0154 µg/mL) | 0.78 (≈ 0.599 µg/mL) | 0.78 (≈ 0.599 µg/mL) | 0.254 (≈ 0.195 µg/mL) | 0.78 (≈ 0.599 µg/mL) | 200 | 10.8 ± 1 | 1 (≈ 0.768 µg/mL) |  |  |  |  | 
Cc1ccc(NC(=O)N[C@@H](Cc2cc(F)cc(F)c2)C(=O)N[C@@H]2C(=O)N3CCCC3C(=O)N3CCOCC3C(=O)N[C@@H](C)C(=O)N3C[C@@H](C)CC3C(=O)O[C@H]2C)cc1 (stereo partly drawn) [Compound 33, (S)-3-(3,5-difluorophenyl)-2-(3-(p-tolyl)ureido)-N-((6aS,12S,13S,15aS,17S,21S,23aS)-13,17,21-trimethyl-6,11,15,20,23-pentaoxooctadecahydro-6H,11H,15H-[1,4]oxazino[3,4-i]dipyrrolo[2,1-c:2′,1′-l][1]oxa[4,7,10,13]tetraazacyclohexadecin-12-yl)propanamide] ({NH(4-Me-phenyl)-CO}-[Phe(3,5-F2)][aThr][ξP][X5]A[ξPro(4S-Me)]; ester 2-C) | 0.2 (≈ 0.162 µg/mL) | 0.1 (≈ 0.081 µg/mL) | 0.2 (≈ 0.162 µg/mL) | 0.098 (≈ 0.0794 µg/mL) | 0.2 (≈ 0.162 µg/mL) | 200 | 41 ± 4.3 | 0.39 (≈ 0.316 µg/mL) |  |  |  |  | 
Cc1ccc(NC(=O)N[C@@H](Cc2cc(F)cc(F)c2)C(=O)N[C@@H]2C(=O)N3CCCC3C(=O)N(C)[C@@H](C)C(=O)N[C@@H](C)C(=O)N3C[C@@H](C)CC3C(=O)O[C@H]2C)cc1 (stereo partly drawn) [Compound 26, (2S)-3-(3,5-difluorophenyl)-N-((2S,6S,9S,11aS,17S,18S)-2,6,9,10,18-pentamethyl-5,8,11,16,20-pentaoxohexadecahydro-1H,5H,16H-dipyrrolo[2,1-c:2′,1′-l][1]oxa[4,7,10,13]tetraazacyclohexadecin-17-yl)-2-(3-(p-tolyl)ureido)propanamide] ({NH(4-Me-phenyl)-CO}-[Phe(3,5-F2)][aThr][ξP][NMeA]A[ξPro(4S-Me)]; ester 2-C) | 0.03 (≈ 0.0235 µg/mL) | 0.2 (≈ 0.156 µg/mL) | 0.2 (≈ 0.156 µg/mL) | 0.125 (≈ 0.0977 µg/mL) | 0.39 (≈ 0.305 µg/mL) | 200 | 40.5 ± 3.8 | 0.5 (≈ 0.391 µg/mL) |  |  |  |  | 
Cc1ccc(NC(=O)N[C@@H](Cc2cc(F)cc(F)c2)C(=O)N[C@H]2COC(=O)C3C[C@H](C)CN3C(=O)[C@H](C)NC(=O)C3CCCCN3C(=O)C3CCCN3C2=O)cc1 (stereo partly drawn) [Compound 45, (S)-3-(3,5-difluorophenyl)-N-((2S,6S,8aS,14aS,20S,23aS)-2,6-dimethyl-5,8,14,19,23-pentaoxooctadecahydro-1H,5H,14H,19H-pyrido[2,1-i]dipyrrolo[2,1-c:2′,1′-l][1]oxa[4,7,10,13]tetraazacyclohexadecin-20-yl)-2-(3-(p-tolyl)ureido)propanamide] |  | 0.2 to 0.4 (≈ 0.159 to 0.318 µg/mL) | 0.4 (≈ 0.318 µg/mL) | 0.1 (≈ 0.0794 µg/mL) | 0.4 (≈ 0.318 µg/mL) | 100 | 56.8 ± 6.7 | 0.4 (≈ 0.318 µg/mL) |  |  |  |  | 
Cc1ccc(NC(=O)N[C@@H](Cc2ccccc2)C(=O)N[C@H]2COC(=O)[C@@H]3C[C@@H](C)CN3C(=O)[C@H](C)NC(=O)[C@@H]3CCCCN3C(=O)[C@@H]3CCCN3C2=O)cc1 [Compound 23, (S)—N-((2R,6S,8aS,14aS,20S,23aS)-2,6-dimethyl-5,8,14,19,23-pentaoxooctadecahydro-1H,5H,14H,19H-pyrido[2,1-i]dipyrrolo[2,1-c:2′,1′-l][1]oxa[4,7,10,13]tetraazacyclohexadecin-20-yl)-3-phenyl-2-(3-(p-tolyl)ureido)propanamide] | < 0.2 | 0.4 (≈ 0.303 µg/mL) | 0.4 (≈ 0.303 µg/mL) | < 0.2 | 0.1 (≈ 0.0758 µg/mL) |  | 74 ± 7.7 | < 0.2 | < 0.2 |  |  |  | 
Cc1ccc(NC(=O)N[C@@H](Cc2ccccc2)C(=O)N[C@H]2COC(=O)C3C[C@H](C)CN3C(=O)[C@H](C)NC(=O)C3CCCCN3C(=O)C3CCCN3C2=O)cc1 (stereo partly drawn) [Compound 43, (S)—N-((2S,6S,8aS,14aS,20S,23aS)-2,6-dimethyl-5,8,14,19,23-pentaoxooctadecahydro-1H,5H,14H,19H-pyrido[2,1-i]dipyrrolo[2,1-c:2′,1′-l][1]oxa[4,7,10,13]tetraazacyclohexadecin-20-yl)-3-phenyl-2-(3-(p-tolyl)ureido)propanamide] | 0.4 (≈ 0.303 µg/mL) | 1.6 (≈ 1.21 µg/mL) | 1.6 (≈ 1.21 µg/mL) | 0.2 (≈ 0.152 µg/mL) | 3.1 (≈ 2.35 µg/mL) | >200 | 74.5 ± 8.8 | 0.8 (≈ 0.606 µg/mL) |  |  |  |  | 
C[C@H]1CC2C(=O)O[C@@H](C)[C@H](NC(=O)[C@H](Cc3cc(F)cc(F)c3)NC(=O)Nc3ccc(OC(F)(F)F)cc3)C(=O)N3CCCC3C(=O)N3CCOCC3C(=O)N[C@@H](C)C(=O)N2C1 (stereo partly drawn) [Compound 34, (S)-3-(3,5-difluorophenyl)-2-(3-(4-(trifluoromethoxy)phenyl)ureido)-N-((6aS,12S,13S,15aS,17S,21S,23aS)-13,17,21-trimethyl-6,11,15,20,23-pentaoxooctadecahydro-6H,11H,15H-[1,4]oxazino[3,4-i]dipyrrolo[2,1-c:2′,1′-l][1]oxa[4,7,10,13]tetraazacyclohexadecin-12-yl)propanamide] ({NH(4-OCF3-phenyl)-CO}-[Phe(3,5-F2)][aThr][ξP][X5]A[ξPro(4S-Me)]; ester 2-C) |  |  | 0.05 (≈ 0.044 µg/mL) | 0.049 (≈ 0.0431 µg/mL) | 0.05 (≈ 0.044 µg/mL) | 50 |  |  |  | 0.02 (≈ 0.0176 µg/mL) | 0.02 (≈ 0.0176 µg/mL) | 26 ± 2.6 | 0.1 (≈ 0.088 µg/mL)
Cc1ccc(NC(=O)N[C@@H](Cc2cc(F)cc(F)c2)C(=O)N[C@@H]2C(=O)N3CCCC3C(=O)N3CCCCC3C(=O)N[C@@H](C)C(=O)N3C[C@H](C)CC3C(=O)O[C@H]2C)cc1 (stereo partly drawn) [Compound 39, (S)-3-(3,5-difluorophenyl)-2-(3-(p-tolyl)ureido)-N-((2R,6S,8aS,14aS,20S,21S,23aS)-2,6,21-trimethyl-5,8,14,19,23-pentaoxooctadecahydro-1H,5H,14H,19H-pyrido[2,1-i]dipyrrolo[2,1-c:2′,1′-l][1]oxa[4,7,10,13]tetraazacyclohexadecin-20-yl)propanamide] ({NH(4-Me-phenyl)-CO}-[Phe(3,5-F2)][aThr][ξP][ξPip]A[ξPro(4R-Me)]; ester 2-C) | 0.02 (≈ 0.0162 µg/mL) | 0.05 (≈ 0.0404 µg/mL) | 0.05 (≈ 0.0404 µg/mL) | 0.05 (≈ 0.0404 µg/mL) | 0.05 (≈ 0.0404 µg/mL) | 100 | 40 ± 4.1 | 0.2 (≈ 0.162 µg/mL) |  |  |  |  | 

Source: patent publication US10457707B2, “Substituted urea depsipeptide analogs as activators of the CLPP endopeptidase” (priority 2015, dated 2019)
